Experimental data taken from PubChem BioAssay AID284 (DTP/NCI, 2004).
“And” between values parts separate entries of the source, which are not always exact repeats. Equal values may be shown once. Toxic doses and inconclusive results are not listed.

System: BDF1 mice, L1210/MTX-resistant leukemia ip, survival T/C
Assay: NCI In Vivo Anticancer Drug Screen. Data for tumor model L1210 Leukemia resistant to Methotrexate; NSC 740 (intraperitoneal) in B6D2F1 (BDF1) mice
Conditions: endpoint: mean survival time, higher = longer survival
Protocol: The antitumor activity of compounds was measured in mice bearing transplantable tumors. Survival or tumor size were measured and the results are expressed as the measurement made in the treated group (T) divided by the measurement made in the vehicle treated control group (C). The tumor model used in this assay is L1210 Leukemia resistant to Methotrexate; NSC 740 (intraperitoneal) in B6D2F1 (BDF1) mice

[1] = dose: 2.0 mg/kg/injection, schedule: Q01DX010 (ip), vehicle: saline
[2] = dose: 12.5 mg/kg/injection, schedule: Q01DX010 (ip), vehicle: saline
[3] = dose: 12.5 mg/kg/injection, schedule: Q01DX010 (sc), vehicle: steriod suspending solution
[4] = dose: 25.0 mg/kg/injection, schedule: Q01DX010 (sc), vehicle: steriod suspending solution
[5] = dose: 50.0 mg/kg/injection, schedule: Q01DX010 (sc), vehicle: steriod suspending solution
[6] = dose: 100.0 mg/kg/injection, schedule: Q01DX010 (sc), vehicle: steriod suspending solution
[7] = dose: 3.0 mg/kg/injection, schedule: Q01DX Z (ip), vehicle: carboxymethylcellulose (CMC)
[8] = dose: 6.0 mg/kg/injection, schedule: Q01DX Z (ip), vehicle: carboxymethylcellulose (CMC)
[9] = dose: 10.0 mg/kg/injection, schedule: Q01DX010 (ip), vehicle: saline
[10] = dose: 20.0 mg/kg/injection, schedule: Q01DX010 (ip), vehicle: saline
[11] = dose: 25.0 mg/kg/injection, schedule: Q01DX010 (ip), vehicle: saline

## O=C(Nc1ccc(NC2=NCCN2)cc1)c1ccc(C(=O)Nc2ccc(NC3=NCCN3)cc2)cc1
[1]
  T/C: 167 % of control and 219 % of control
dose: 4.0 mg/kg/injection, schedule: Q01DX010 (ip), vehicle: saline
  T/C: 248 % of control and 257 % of control
dose: 8.0 mg/kg/injection, schedule: Q01DX010 (ip), vehicle: saline
  T/C: 188 % of control and 243 % of control
dose: 16.0 mg/kg/injection, schedule: Q01DX010 (ip), vehicle: saline
  T/C: 101 % of control and 106 % of control

## CCCNc1ncnc2[nH]ncc12
dose: 3.13 mg/kg/injection, schedule: Q01DX010 (ip), vehicle: saline
  T/C: 90 % of control and 91 % of control
dose: 6.25 mg/kg/injection, schedule: Q01DX010 (ip), vehicle: saline
  T/C: 100 % of control and 102 % of control
[2]
  T/C: 86 % of control and 97 % of control

## C[C@]12C=CC(=O)C=C1CC[C@@H]1[C@@H]2[C@@H](O)C[C@@]2(C)[C@H]1CC[C@]2(O)C(=O)CO
[3]
  T/C: 88 % of control
[4]
  T/C: 99 % of control
[5]
  T/C: 86 % of control
[6]
  T/C: 90 % of control

## Nc1ccc(C(=O)NO)cc1
dose: 112.0 mg/kg/injection, schedule: Q01DX015 (ip), vehicle: carboxymethylcellulose (CMC)
  T/C: 109 % of control
dose: 225.0 mg/kg/injection, schedule: Q01DX015 (ip), vehicle: carboxymethylcellulose (CMC)
  T/C: 117 % of control
dose: 450.0 mg/kg/injection, schedule: Q01DX015 (ip), vehicle: carboxymethylcellulose (CMC)
  T/C: 100 % of control

## C1CN1c1nc(N2CC2)nc(N2CC2)n1
dose: 2.0 mg/kg/injection, schedule: Q01DX Z (ip), vehicle: saline
  T/C: 93 % of control
dose: 4.0 mg/kg/injection, schedule: Q01DX Z (ip), vehicle: saline
  T/C: 93 % of control
dose: 32.0 micrograms/kg/injection, schedule: Q01DX Z (ip), vehicle: saline
  T/C: 90 % of control and 100 % of control
dose: 63.0 micrograms/kg/injection, schedule: Q01DX Z (ip), vehicle: saline
  T/C: 98 % of control
dose: 125.0 micrograms/kg/injection, schedule: Q01DX Z (ip), vehicle: saline
  T/C: 87 % of control
dose: 250.0 micrograms/kg/injection, schedule: Q01DX Z (ip), vehicle: saline
  T/C: 98 % of control

## CC(=O)O[C@]1(C(C)=O)CC[C@H]2[C@@H]3C[C@H](C)C4=CC(=O)C=C[C@]4(C)[C@@]3(F)[C@@H](O)C[C@@]21C
dose: 0.62 mg/kg/injection, schedule: Q01DX Z (sc), vehicle: steriod suspending solution
  T/C: 96 % of control
dose: 1.25 mg/kg/injection, schedule: Q01DX Z (sc), vehicle: steriod suspending solution
  T/C: 97 % of control
dose: 2.5 mg/kg/injection, schedule: Q01DX Z (sc), vehicle: steriod suspending solution
  T/C: 100 % of control
dose: 5.0 mg/kg/injection, schedule: Q01DX Z (sc), vehicle: steriod suspending solution
  T/C: 101 % of control
[3]
  T/C: 101 % of control
[4]
  T/C: 100 % of control
dose: 37.5 mg/kg/injection, schedule: Q01DX Z (sc), vehicle: steriod suspending solution
  T/C: 150 % of control
[5]
  T/C: 88 % of control
[6]
  T/C: 88 % of control

## O=C(Nc1ccc(C2=NCCCN2)cc1)c1ccc(NC(=O)c2ccc(C3=NCCCN3)cc2)cc1
dose: 2.0 mg/kg/injection, schedule: Q01DX010 (ip), vehicle: other
  T/C: 168 % of control
dose: 4.0 mg/kg/injection, schedule: Q01DX010 (ip), vehicle: other
  T/C: 218 % of control and 257 % of control
dose: 8.0 mg/kg/injection, schedule: Q01DX010 (ip), vehicle: other
  T/C: 181 % of control and 221 % of control

## S=c1nc[nH]c2nc[nH]c12
dose: 1.2 mg/kg/injection, schedule: Q01DX Z (ip), vehicle: carboxymethylcellulose (CMC)
  T/C: 118 % of control
dose: 2.4 mg/kg/injection, schedule: Q01DX Z (ip), vehicle: carboxymethylcellulose (CMC)
  T/C: 91 % of control
[7]
  T/C: 95 % of control
dose: 5.0 mg/kg/injection, schedule: Q01DX010 (ip), vehicle: alkali diluted with saline
  T/C: 100 % of control
dose: 5.0 mg/kg/injection, schedule: Q01DX Z (ip), vehicle: alkali diluted with saline
  T/C: 120 % of control and 91 % of control and 102 % of control
[8]
  T/C: 111 % of control
dose: 9.0 mg/kg/injection, schedule: Q01DX Z (ip), vehicle: carboxymethylcellulose (CMC)
  T/C: 95 % of control
dose: 10.0 mg/kg/injection, schedule: Q01DX010 (ip), vehicle: alkali diluted with saline
  T/C: 99 % of control
dose: 10.0 mg/kg/injection, schedule: Q01DX Z (ip), vehicle: alkali diluted with saline
  T/C: 94 % of control and 110 % of control
dose: 12.0 mg/kg/injection, schedule: Q01DX Z (ip), vehicle: carboxymethylcellulose (CMC)
  T/C: 98 % of control
dose: 20.0 mg/kg/injection, schedule: Q01DX010 (ip), vehicle: alkali diluted with saline
  T/C: 101 % of control
dose: 20.0 mg/kg/injection, schedule: Q01DX Z (ip), vehicle: alkali diluted with saline
  T/C: 117 % of control and 91 % of control and 102 % of control
dose: 25.0 mg/kg/injection, schedule: Q01DX Z (ip), vehicle: other
  T/C: 93 % of control and 103 % of control
dose: 36.0 mg/kg/injection, schedule: Q01DX Z (ip), vehicle: carboxymethylcellulose (CMC)
  T/C: 102 % of control
dose: 40.0 mg/kg/injection, schedule: Q01DX010 (ip), vehicle: alkali diluted with saline
  T/C: 104 % of control
dose: 80.0 mg/kg/injection, schedule: Q01DX010 (ip), vehicle: alkali diluted with saline
  T/C: 95 % of control
dose: 100.0 mg/kg/injection, schedule: Q01DX Z (ip), vehicle: other
  T/C: 123 % of control and 98 % of control

## CN(C)CC(=O)c1ccc(O)c(O)c1
dose: 200.0 mg/kg/injection, schedule: Q01DX010 (ip), vehicle: saline
  T/C: 117 % of control
dose: 300.0 mg/kg/injection, schedule: Q01DX010 (ip), vehicle: saline
  T/C: 109 % of control
dose: 450.0 mg/kg/injection, schedule: Q01DX010 (ip), vehicle: saline
  T/C: 104 % of control
dose: 675.0 mg/kg/injection, schedule: Q01DX010 (ip), vehicle: saline
  T/C: 111 % of control

## C=CC(CN1CC1)OC(C)=O (stereo not given)
dose: 1.25 mg/kg/injection, schedule: Q01DX Z (ip), vehicle: saline
  T/C: 119 % of control
[1]
  T/C: 123 % of control
dose: 2.5 mg/kg/injection, schedule: Q01DX Z (ip), vehicle: saline
  T/C: 107 % of control
dose: 5.0 mg/kg/injection, schedule: Q01DX Z (ip), vehicle: saline
  T/C: 102 % of control

## c1ccc(CCSc2ncnc3nc[nH]c23)cc1
dose: 62.5 mg/kg/injection, schedule: Q01DX010 (ip), vehicle: saline
  T/C: 93 % of control
dose: 125.0 mg/kg/injection, schedule: Q01DX010 (ip), vehicle: saline
  T/C: 91 % of control
dose: 250.0 mg/kg/injection, schedule: Q01DX010 (ip), vehicle: saline
  T/C: 100 % of control
dose: 500.0 mg/kg/injection, schedule: Q01DX010 (ip), vehicle: saline
  T/C: 100 % of control

## Cn1c(N)nc2nc[nH]c2c1=S
dose: 6.25 mg/kg/injection, schedule: Q01DX Z (ip), vehicle: carboxymethylcellulose (CMC)
  T/C: 108 % of control
[9]
  T/C: 98 % of control
dose: 12.5 mg/kg/injection, schedule: Q01DX Z (ip), vehicle: carboxymethylcellulose (CMC)
  T/C: 90 % of control
[10]
  T/C: 95 % of control
dose: 25.0 mg/kg/injection, schedule: Q01DX Z (ip), vehicle: carboxymethylcellulose (CMC)
  T/C: 104 % of control
dose: 40.0 mg/kg/injection, schedule: Q01DX010 (ip), vehicle: saline
  T/C: 97 % of control
dose: 50.0 mg/kg/injection, schedule: Q01DX Z (ip), vehicle: carboxymethylcellulose (CMC)
  T/C: 119 % of control
dose: 80.0 mg/kg/injection, schedule: Q01DX010 (ip), vehicle: saline
  T/C: 115 % of control

## CN(C)/N=N/c1nc[nH]c1C(N)=O
[2]
  T/C: 108 % of control
[11]
  T/C: 118 % of control
dose: 50.0 mg/kg/injection, schedule: Q01DX010 (ip), vehicle: saline
  T/C: 119 % of control
dose: 100.0 mg/kg/injection, schedule: Q01DX010 (ip), vehicle: saline
  T/C: 118 % of control

## O=NN(CCCl)C(=O)NCCCl
[2]
  T/C: 113 % of control
[11]
  T/C: 87 % of control and 91 % of control

## Cc1cc(N(CCCl)CCCl)ccc1N=Nc1ccccc1C(=O)O
dose: 0.37 mg/kg/injection, schedule: Q01DX Z (ip), vehicle: carboxymethylcellulose (CMC)
  T/C: 104 % of control
dose: 0.75 mg/kg/injection, schedule: Q01DX Z (ip), vehicle: carboxymethylcellulose (CMC)
  T/C: 124 % of control
[7]
  T/C: 94 % of control
dose: 4.0 mg/kg/injection, schedule: Q01DX Z (ip), vehicle: carboxymethylcellulose (CMC)
  T/C: 109 % of control
dose: 5.0 mg/kg/injection, schedule: Q01DX010 (ip), vehicle: saline
  T/C: 123 % of control
[8]
  T/C: 124 % of control
dose: 8.0 mg/kg/injection, schedule: Q01DX Z (ip), vehicle: carboxymethylcellulose (CMC)
  T/C: 104 % of control
[9]
  T/C: 107 % of control
dose: 10.0 mg/kg/injection, schedule: Q01DX Z (ip), vehicle: carboxymethylcellulose (CMC)
  T/C: 97 % of control
[10]
  T/C: 88 % of control
